Experimental data as given in the supplement of paper PMC10307832.

Tests used:
Assay in all cases: relative viability (nuclei count vs DMSO), 5 days (fraction); higher = more cells survive
JZL-184 + Bortezomib = compound: C1CN(CCC1C(C2=CC3=C(C=C2)OCO3)(C4=CC5=C(C=C4)OCO5)O)C(=O)OC6=CC=C(C=C6)[N+](=O)[O-] [JZL-184] + CC(C)C[C@H](NC(=O)[C@H](Cc1ccccc1)NC(=O)c1cnccn1)B(O)O [Bortezomib] (partner 0.002 µM)
In short: (§1)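 Five library-drug doses in √10 steps were combined with a fixed anchor-drug dose, or a single drug was given alone, by pin tool to lung cancer cell lines in 1536-well plates the day after seeding. Nuclei were stained and counted after 5 days. Relative viability is the nuclei count in treated wells over that in vehicle wells, taken as the median of duplicate plates.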

JZL-184 + Crizotinib = compound: C1CN(CCC1C(C2=CC3=C(C=C2)OCO3)(C4=CC5=C(C=C4)OCO5)O)C(=O)OC6=CC=C(C=C6)[N+](=O)[O-] [JZL-184] + C[C@@H](Oc1cc(-c2cnn(C3CCNCC3)c2)cnc1N)c1c(Cl)ccc(F)c1Cl [Crizotinib] (partner 1 µM)
In short: as §1

JZL-184 + Linsitinib = compound: C1CN(CCC1C(C2=CC3=C(C=C2)OCO3)(C4=CC5=C(C=C4)OCO5)O)C(=O)OC6=CC=C(C=C6)[N+](=O)[O-] [JZL-184] + C[C@]1(O)C[C@@H](c2nc(-c3ccc4ccc(-c5ccccc5)nc4c3)c3c(N)nccn32)C1 [Linsitinib] (partner 1 µM)
In short: as §1

JZL-184 + Alpelisib = compound: C1CN(CCC1C(C2=CC3=C(C=C2)OCO3)(C4=CC5=C(C=C4)OCO5)O)C(=O)OC6=CC=C(C=C6)[N+](=O)[O-] [JZL-184] + Cc1nc(NC(=O)N2CCC[C@H]2C(N)=O)sc1-c1ccnc(C(C)(C)C(F)(F)F)c1 [Alpelisib] (partner 2 µM)
In short: as §1

JZL-184 + Pictilisib = compound: C1CN(CCC1C(C2=CC3=C(C=C2)OCO3)(C4=CC5=C(C=C4)OCO5)O)C(=O)OC6=CC=C(C=C6)[N+](=O)[O-] [JZL-184] + CS(=O)(=O)N1CCN(Cc2cc3nc(-c4cccc5[nH]ncc45)nc(N4CCOCC4)c3s2)CC1 [Pictilisib] (partner 1 µM)
In short: as §1

Cell Line	relative viability (JZL-184 + Bortezomib; first compound 0.04 µM)	relative viability (JZL-184 + Bortezomib; first compound 0.4 µM)	relative viability (JZL-184 + Bortezomib; first compound 1.265 µM)	relative viability (JZL-184 + Bortezomib; first compound 4 µM)	relative viability (JZL-184 + Crizotinib; first compound 0.04 µM)	relative viability (JZL-184 + Crizotinib; first compound 0.4 µM)	relative viability (JZL-184 + Crizotinib; first compound 1.265 µM)	relative viability (JZL-184 + Crizotinib; first compound 4 µM)	relative viability (JZL-184 + Linsitinib; first compound 0.04 µM)	relative viability (JZL-184 + Linsitinib; first compound 0.4 µM)	relative viability (JZL-184 + Linsitinib; first compound 1.265 µM)	relative viability (JZL-184 + Linsitinib; first compound 4 µM)	relative viability (JZL-184 + Alpelisib; first compound 0.04 µM)	relative viability (JZL-184 + Alpelisib; first compound 0.4 µM)	relative viability (JZL-184 + Alpelisib; first compound 1.265 µM)	relative viability (JZL-184 + Alpelisib; first compound 4 µM)	relative viability (JZL-184 + Pictilisib; first compound 0.04 µM)	relative viability (JZL-184 + Pictilisib; first compound 0.4 µM)	relative viability (JZL-184 + Pictilisib; first compound 1.265 µM)	relative viability (JZL-184 + Pictilisib; first compound 4 µM)
COR-L 105	0.922	0.742	0.837	0.759	0.985	0.735	0.822	0.696	1.11	0.806	0.83	0.828	0.998	1.2	0.837	0.916	0.448	0.41	0.368	0.37
ChaGo-K-1	1.45	0.984	1.1	1.03	1.31	1.08	1.08	1.06									1.03	0.585	1.04	0.741
EKVX	1.12	0.905	1.04	0.967	0.934	0.972	1.02	0.741	0.987	1.01	0.948	0.937	0.679	0.84	0.875	0.886	0.501	0.407	0.446	0.432
EMC-BAC-2	1.2	1.02	1.16	1.07	0.939	0.726	0.785	0.704	0.855	0.793	0.791	0.784	0.794	0.733	0.776	0.729	0.59	0.559	0.565	0.488
EPLC-272H	1.03	0.735	1.06	0.839	1.03	0.814	1.93	1.03	1.19	1.11	1.35	1.14	0.953	0.817	1.01	0.966	0.317	0.271	0.38	0.314
H3255	0.954	0.708	1.01	0.75	1.17	0.748	0.91	0.786	1.05	0.917	1.09	0.892	0.794	0.725	0.714	0.577	0.524	0.454	0.526	0.49
HARA	1.11	0.967	1.17	1.09	1.17	0.99	0.995	1.03	0.97	0.869	0.935	0.994	0.941	0.824	0.853	0.845	0.356	0.363	0.424	0.577
HCC-15	1.11	0.987	1.03	0.995	0.944	0.808	0.883	0.762	0.939	0.889	1	0.781	0.933	0.899	0.877	0.931	0.957	0.664	0.814	0.697
